# ± gives the expanded uncertainty stated by the source.
# Details: DSC
SMILES,Triple point temperature (Crystal) [K],Triple point temperature (Crystal 1) [K],Triple point temperature (Crystal 2) [K]
Cc1ccc2c(c1)OCN(c1ccc(Cc3ccc(N4COc5cc(C)ccc5C4)cc3)cc1)C2,435.15 ± 10,–,–
Cc1cc(C)c2c(c1)CN(c1ccc(Cc3ccc(N4COc5c(C)cc(C)cc5C4)cc3)cc1)CO2,–,406.15 ± 10,390.15 ± 10
Cc1ccc2c(c1)CN(c1ccc(Cc3ccc(N4COc5ccc(C)cc5C4)cc3)cc1)CO2,–,432.15 ± 10,–
"c1ccc2c(c1)CN(c1ccc(Cc3ccc(N4COc5ccccc5C4)cc3)cc1)CO2 [bis(4-(2H-benzo[e][1,3]oxazin-3(4H)-yl)phenyl)methane]",–,357.15 ± 10,328.15 ± 10

# From the NIST ThermoML archive (doi:10.1016/j.tca.2018.08.012)
